Reference: ChEMBL document CHEMBL1151364, “19-Hydroxybaccatin III, 10-deacetylcephalomannine, and 10-deacetyltaxol: new antitumor taxanes from Taxus wallichiana” (1981)
Converted amounts (≈) assume the structure as drawn. The source made the active and inactive calls. The rule behind the calls is not given here.

Assays:
P388 [1] = assay: In vivo antitumor activity against mouse P388 cells at 16 mg/kg relative to control; format: functional
KB = assay: Cytotoxicity against human KB cells; format: functional; details: for EC50: Homo sapiens, KB, read-out: ED50 (the source's name)
P388 [2] = assay: In vivo antitumor activity against mouse P388 cells at 2.2 mg/kg relative to control; format: functional
P388 [3] = assay: In vivo antitumor activity against mouse P388 cells at 0.26 to 4.3 mg/kg; format: functional, organism-based

| Structure (SMILES) | EC50 (KB) | further results |
| --- | --- | --- |
| CC(=O)O[C@@]12CO[C@@H]1C[C@H](O)[C@@]1(C)C(=O)[C@H](O)C3=C(C)[C@@H](OC(=O)[C@H](O)[C@@H](NC(=O)c4ccccc4)c4ccccc4)C[C@@](O)([C@@H](OC(=O)c4ccccc4)[C@H]21)C3(C)C | 0.027 µg/mL (≈ 0.0333 µM) | T/C (P388 [1]): 135% |
| CC(=O)O[C@@]12CO[C@@H]1C[C@@H](O)[C@@]1(C)C(=O)[C@H](O)C3=C(C)[C@@H](OC(=O)[C@H](O)[C@@H](NC(=O)c4ccccc4)c4ccccc4)C[C@@](O)([C@@H](OC(=O)c4ccccc4)[C@H]21)C3(C)C | 0.034 µg/mL (≈ 0.0419 µM) |  |
| CC(=O)O[C@H]1C(=O)[C@@]2(C)[C@H]([C@H](OC(=O)c3ccccc3)[C@]3(O)C[C@H](OC(=O)[C@H](O)[C@@H](NC(=O)c4ccccc4)c4ccccc4)C(C)=C1C3(C)C)[C@]1(OC(C)=O)CO[C@@H]1C[C@@H]2O [PACLITAXEL] | 0.0012 µg/mL (≈ 0.00141 µM) | T/C (P388 [2]): 152% |
| C/C=C(\C)C(=O)N[C@@H](c1ccccc1)[C@@H](O)C(=O)O[C@H]1C[C@@]2(O)[C@@H](OC(=O)c3ccccc3)[C@@H]3[C@]4(OC(C)=O)CO[C@@H]4C[C@H](O)[C@@]3(C)C(=O)[C@H](OC(C)=O)C(=C1C)C2(C)C [CEPHALOMANNINE] | 0.0038 µg/mL (≈ 0.00457 µM) | T/C (P388 [2]): 162% |
| CC(=O)O[C@H]1C(=O)[C@@]2(CO)[C@H]([C@H](OC(=O)c3ccccc3)[C@]3(O)C[C@H](O)C(C)=C1C3(C)C)[C@]1(OC(C)=O)CO[C@@H]1C[C@@H]2O |  | Activity (KB): 2.2 µg/mL; Activity (P388 [3]): inactive |
| C/C=C(\C)C(=O)N[C@@H](c1ccccc1)[C@@H](O)C(=O)O[C@H]1C[C@@]2(O)[C@@H](OC(=O)c3ccccc3)[C@@H]3[C@]4(OC(C)=O)CO[C@@H]4C[C@@H](O)[C@@]3(C)C(=O)[C@H](O)C(=C1C)C2(C)C | 0.046 µg/mL (≈ 0.0582 µM) |  |
| C/C=C(\C)C(=O)N[C@@H](c1ccccc1)[C@@H](O)C(=O)O[C@H]1C[C@@]2(O)[C@@H](OC(=O)c3ccccc3)[C@@H]3[C@]4(OC(C)=O)CO[C@@H]4C[C@H](O)[C@@]3(C)C(=O)[C@H](O)C(=C1C)C2(C)C | 0.031 µg/mL (≈ 0.0392 µM) | T/C (P388 [1]): 130% |
